Data taken from PubChem BioAssay (NCI).
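Assay format: 96-well plates, 48-hour exposure. The concentration for 50% growth inhibition is given as GI50. TGI: total growth inhibition.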

Key:
Experiment in all cases: NCI tumour cell line growth inhibition, 48 h
786-0 renal = system: 786-0 renal
EKVX NSCLC = system: EKVX NSCLC
HCT-116 colon = system: HCT-116 colon
K-562 leukemia = system: K-562 leukemia
MOLT-4 leukemia = system: MOLT-4 leukemia
SK-MEL-5 melanoma = system: SK-MEL-5 melanoma
SNB-19 CNS = system: SNB-19 CNS
T-47D breast = system: T-47D breast
UACC-257 melanoma = system: UACC-257 melanoma
MDA-MB-231 breast = system: MDA-MB-231 breast

| Structure (SMILES) | TGI (786-0 renal) | TGI (EKVX NSCLC) | TGI (HCT-116 colon) | TGI (K-562 leukemia) | TGI (MOLT-4 leukemia) | TGI (SK-MEL-5 melanoma) | TGI (SNB-19 CNS) | TGI (T-47D breast) | TGI (UACC-257 melanoma) | TGI (MDA-MB-231 breast) | GI50 (HCT-116 colon) | GI50 (K-562 leukemia) | GI50 (MDA-MB-231 breast) | GI50 (SNB-19 CNS) |
| --- | --- | --- | --- | --- | --- | --- | --- | --- | --- | --- | --- | --- | --- | --- |
| N#C/C(C(=O)Nc1ccc(Cl)cc1)=C(/N)N1CCCC1 | > 100 µM | > 100 µM | > 100 µM | > 100 µM | > 100 µM | > 100 µM | > 100 µM | > 100 µM | > 100 µM | – | – | – | – | – |
| O=P(O)(O)c1ccccc1Oc1ccccc1 | > 100 µM | > 100 µM | > 100 µM | > 100 µM | > 100 µM | > 100 µM | > 100 µM | – | > 100 µM | > 100 µM | – | – | – | – |
| CSc1cc(=O)n2c3ccccc3c3ccnc1c32 | – | 56.8 µM | > 100 µM | > 100 µM | > 100 µM | > 100 µM | > 100 µM | – | > 100 µM | – | – | – | – | – |
| COc1ccc(-c2c3c(n(C4OC(CO)C(O)C(O)C4O)c(=S)c2C#N)CCC3)cc1 (stereo not given) | > 100 µM | – | > 100 µM | > 100 µM | 85.4 µM | 38.8 µM | > 100 µM | > 100 µM | > 100 µM | > 100 µM | – | – | – | – |
| COc1cc2cc(C(=O)N3C[C@H](CCl)c4c3cc(N)c3ccccc43)[nH]c2c(OC)c1OC | – | 0.0462 µM | 0.6 µM | > 50 µM | 0.246 µM | < 0.005 µM | 1.24 µM | < 0.005 µM | – | 0.0254 µM | 0.005 µM | 0.005 µM | 0.005 µM | 0.0252 µM |
| NCCCCNCCCNC(=O)c1nc(-c2nc(CCN)sc2Cl)sc1Cl | – | > 100 µM | > 100 µM | > 100 µM | > 100 µM | > 100 µM | > 100 µM | – | > 100 µM | – | – | – | – | – |
| COC(=O)[C@@H]1CCCCC[C@H]2C(CO)=C(C)C(=O)C12 (stereo not given in full) | > 100 µM | > 100 µM | > 100 µM | > 100 µM | > 100 µM | > 100 µM | > 100 µM | – | > 100 µM | – | – | – | – | – |
| COc1ccc(C2C3=C(COC3=O)Oc3cc4c(cc32)OCO4)c(OC)c1 (stereo not given) | > 100 µM | > 100 µM | > 100 µM | 87.3 µM | > 100 µM | > 100 µM | > 100 µM | – | > 100 µM | > 100 µM | – | – | – | – |
